These results are taken from patent EP0632029A1, “Benzylidene hydantoin derivative, ultraviolet ray absorbent and external preparation for skin including the same” (SHISEIDO COMPANY LIMITED, priority 1993, dated 1995).

The structures appear in SMILES notation.

Common to all, as to format: physicochemical
Series [1] in a line: Reaction with metal ion (colour change after FeCl₃). Particulars: for color of the solution BEFORE ADDING FeCl₃: 0.1g in 10 ml of 99.5% ethyl alcohol; for color change of the solution AFTER ADDING FeCl₃: 0.1g in 10 ml of 99.5% ethyl alcohol plus 2 ml of 0.02% FeCl₃. On the procedure:
Reactivities with trivalent iron ion of the following compounds 1 to 3 as examples of the benzylidene hydantoin derivative and 2-hydroxy-4-methoxybenzophenone (comparison 1) and 2-hydroxy-5-methylphenylbenzotriazol (comparison 2) were tested. (Method)
0.1g of each compounds were dissolved in 10 ml of 99.5% ethyl alcohol and added 2 ml of 0.02% FeCl₃ (99.5% ethyl alcohol solution), respectively. After stirring, color change of the solution were observed.

Another series in a line: Solubility.
Series [2] is described as follows: UV absorption maximum in ethanol (characterisation of the examples). Particulars: for ε: at λmax.
Series [3] is described as follows: Ultraviolet ray absorption, 10ppm in ethanol, spectrophotometer. Particulars: 10ppm in ethanol (99.5%), quartz cell 10mm. The procedure:
Ultraviolet ray absorptivities of the compound 1, 3 and comparison (2-hydroxy-4-methoxybenzophenone; UV-A absorbent) were measured according to the following method.
The compound 1, 3 and the comparison compound were dissolved in ethanol (99.5%) so as to the concentration be 10ppm, and absorption were measured by using quartz cell (10mm×10mm) and the spectrophotometer UVIDEC-610 (JASCO CORPORATION).

As to `CCCCCCCCN1C(=O)NC(=Cc2ccc(OC)cc2)C1=O` [COM. 1, 5-(4-methoxybenzylidene)-3-n-octyl hydantoin, reference compound], the “color of the solution BEFORE ADDING FeCl₃” value in series [1] is listed as “LIGHT YELLOW”. For the same molecule, in series [1], the “color change of the solution AFTER ADDING FeCl₃” value (from here on “color change”) is recorded as “BROWNING”. For the same molecule, the Solubility in “Solubility” (CETYL-2-ETHYLHEXANOATE) was 0.2%; in “Solubility” (ETHANOL(99.5%)), 0.65%; in the series “Solubility” (OLIVE OIL) it was 0.4%.
As to `COc1ccc(C=C2NC(=O)N(CCCCCCCCCCCCCCCC(C)C)C2=O)cc1` [compound 2, 5-(4-METHOXYBENZYLIDENE)-3-[…]], in series [2], the “λmax (ethanol)” value amounted to 334 nm and the ε was 31,500. Further, in series [1], the “color of the solution BEFORE ADDING FeCl₃” value is given as “COLORLESS OR LIGHT YELLOW” and the “color change” value is listed as “NO CHANGE”. Also, in the series “Solubility” (CETYL-2-ETHYLHEXANOATE), the Solubility was 14%. In “Solubility” (ETHANOL(99.5%)), the Solubility is given as 4.0%. This molecule also returned a Solubility in the series “Solubility” (OLIVE OIL) of 17%.
As for `CCCCC(CC)COc1ccc(C=C2NC(=O)N(CC(CC)CCCC)C2=O)cc1` (centres unmarked) [COMPOUND 3, 5-[4-(2-ETHYLHEXYLOXY)BENZYLIDENE]-3-(2-ETHYLEXYL) HYDANTOIN], the absorption was 0.24 in series [3] (WAVELENGTH 300 nm); 0.39 in series [3] (WAVELENGTH 310 nm); 0.55 in series [3] (WAVELENGTH 320 nm); 0.73 in series [3] (WAVELENGTH 330 nm); 0.76 in series [3] (WAVELENGTH 340 nm); 0.68 in series [3] (WAVELENGTH 350 nm). Further, the absorption in series [3] (WAVELENGTH 360 nm) was found to be 0.40; in series [3] (WAVELENGTH 370 nm), 0.14; in series [3] (WAVELENGTH 380 nm), 0.03. In addition, the “λmax (ethanol)” value in series [2] is reported as 336 nm. Further, in series [2], the ε is reported as 32,500. For the same molecule, in series [1], the “color of the solution BEFORE ADDING FeCl₃” value is listed as “COLORLESS OR LIGHT YELLOW”. Besides, the “color change” value in series [1] is reported as “NO CHANGE”. Also, the Solubility in the series “Solubility” (CETYL-2-ETHYLHEXANOATE) came out at 4%; in “Solubility” (ETHANOL(99.5%)), 1.4%; in the series “Solubility” (OLIVE OIL) it was 7%.
Take `CCCCC(CC)CN1C(=O)NC(=Cc2ccc(OC)cc2)C1=O` (centres unmarked) [COMPOUND 1, 5-(4-METHOXYBENZYLIDENE)-3-(2-ETHYLHEXYL) HYDANTOIN]: the absorption in series [3] (WAVELENGTH 300 nm) is on record as 0.36; in series [3] (WAVELENGTH 310 nm), 0.53; in series [3] (WAVELENGTH 320 nm) it was 0.74; in series [3] (WAVELENGTH 330 nm), 0.95; in series [3] (WAVELENGTH 340 nm) it was 0.94; in series [3] (WAVELENGTH 350 nm), 0.80. For the same molecule, the absorption in series [3] (WAVELENGTH 360 nm) is listed as 0.40; in series [3] (WAVELENGTH 370 nm), 0.10; in series [3] (WAVELENGTH 380 nm) it was 0.02. The “λmax (ethanol)” value in series [2] is 334 nm. For the same molecule, the ε in series [2] is given as 32,000. Further, the “color of the solution BEFORE ADDING FeCl₃” value in series [1] was “COLORLESS OR LIGHT YELLOW”. Further, the “color change” value in series [1] is “NO CHANGE”. Moreover, the Solubility in the series “Solubility” (CETYL-2-ETHYLHEXANOATE) is given as 2.1%; in the series “Solubility” (ETHANOL(99.5%)), 1.2%; in the series “Solubility” (OLIVE OIL), 3.2%.
For the molecule `COc1ccc(C(=O)c2ccccc2)c(O)c1` [COMPARISON, 2-hydroxy-4-methoxybenzophenone, reference compound], the absorption in series [3] (WAVELENGTH 300 nm) came out at 0.39; in series [3] (WAVELENGTH 310 nm) it was 0.35; in series [3] (WAVELENGTH 320 nm), 0.40; in series [3] (WAVELENGTH 330 nm), 0.42; in series [3] (WAVELENGTH 340 nm), 0.34; in series [3] (WAVELENGTH 350 nm), 0.20. The values for the absorption in series [3] (WAVELENGTH 360 nm), in series [3] (WAVELENGTH 370 nm) and in series [3] (WAVELENGTH 380 nm) were 0.11, 0.03 and 0.00, respectively.
